Data from patent US8853230B2, “Inhibitors of JAK” (Portola Pharmaceuticals, Inc., priority 2009, dated 2014).

How the values were obtained:
[1] = biological target: T1, JAK2 (Homo sapiens, UniProt O60674); test: Z'-LYTE kinase assay, JAK2 tyrosine phosphorylation activity; format: biochemical
T1 construct: 5 μl of catalytic domain recombinant Kinase enzyme+Tyr peptide substrate (Invitrogen, Calif.); purchased Invitrogen
Method in brief: (§1)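 FRET-based Z′-LYTE format with recombinant catalytic-domain kinases and Tyr6 peptide substrate; compounds in 1% DMSO final, duplicate wells. Kinase reaction with ATP runs 1 h at room temperature, then protease development 1 h; fluorescence read at ex 400, em 445/520 nm. IC50 from 4-parameter logistic fit of percent phosphorylation versus uninhibited.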

[2] = biological target: T2, JAK1 (Homo sapiens, UniProt P23458); test: Z'-LYTE kinase assay, JAK1 tyrosine phosphorylation activity; format: biochemical; details: read-out: JAK 1 IC50
T2 construct: 5 μl of catalytic domain recombinant Kinase enzyme+Tyr peptide substrate (Invitrogen, Calif.); purchased Invitrogen
T2 sequence (P23458 875-1153 limits assumed): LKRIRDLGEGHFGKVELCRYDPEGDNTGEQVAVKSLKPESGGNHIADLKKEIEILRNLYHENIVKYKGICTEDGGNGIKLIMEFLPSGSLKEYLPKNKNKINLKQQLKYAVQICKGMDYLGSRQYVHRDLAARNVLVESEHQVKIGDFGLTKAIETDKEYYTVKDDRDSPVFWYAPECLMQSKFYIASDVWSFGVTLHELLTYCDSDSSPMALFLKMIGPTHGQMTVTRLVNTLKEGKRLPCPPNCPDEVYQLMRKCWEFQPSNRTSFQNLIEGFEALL
Method in brief: as §1

[3] = biological target: T3, Syk (Homo sapiens, UniProt P43405); test: Syk kinase inhibition (Syk IC50 of Table 1); format: biochemical
[4] = biological target: T4, JAK3 (Homo sapiens, UniProt P52333); test: Z'-LYTE kinase assay, JAK3 tyrosine phosphorylation activity; format: biochemical
T4 construct: 5 μl of catalytic domain recombinant Kinase enzyme+Tyr peptide substrate (Invitrogen, Calif.); purchased Invitrogen
T4 sequence (P52333 822-1111 limits assumed): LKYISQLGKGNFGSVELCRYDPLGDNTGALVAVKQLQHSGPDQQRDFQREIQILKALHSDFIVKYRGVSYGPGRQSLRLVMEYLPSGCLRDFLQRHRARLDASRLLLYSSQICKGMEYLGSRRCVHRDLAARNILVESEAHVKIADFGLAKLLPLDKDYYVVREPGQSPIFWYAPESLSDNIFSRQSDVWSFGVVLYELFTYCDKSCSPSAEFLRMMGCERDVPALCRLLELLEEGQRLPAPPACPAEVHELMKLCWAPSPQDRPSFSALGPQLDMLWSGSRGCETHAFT
Method in brief: as §1

[5] = biological target: T3, Syk; test: Syk IC50 (Table 1; method not given); format: biochemical
[6] = biological target: T5, TYK2 (Homo sapiens, UniProt P29597); test: Z'-LYTE kinase assay, TYK2 tyrosine phosphorylation activity; format: biochemical
T5 construct: 5 μl of catalytic domain recombinant Kinase enzyme+Tyr peptide substrate (Invitrogen, Calif.); purchased Invitrogen
T5 sequence (P29597 897-1176 limits assumed): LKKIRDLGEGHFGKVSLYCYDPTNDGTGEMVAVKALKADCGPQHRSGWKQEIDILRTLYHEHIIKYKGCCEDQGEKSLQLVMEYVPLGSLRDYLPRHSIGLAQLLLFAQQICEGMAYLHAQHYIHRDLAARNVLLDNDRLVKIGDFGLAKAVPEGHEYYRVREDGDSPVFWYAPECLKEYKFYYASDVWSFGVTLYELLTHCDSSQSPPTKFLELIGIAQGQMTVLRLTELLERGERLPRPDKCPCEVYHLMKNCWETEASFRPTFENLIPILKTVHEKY
Method in brief: as §1

[7] = system: IL4-induced phospho STAT6 formation in Ramos B lymphocytes; test: Inhibition of IL4-induced phospho STAT6 formation in Ramos B lymphocytes (flow cytometry); format: cell-based, human; details: Homo sapiens; for inhibition at 0.2 µM: 200 nM compound, read-out: % Inhibition of IL-4 Induced STAT6 Phosphorylation 200 nM; for inhibition at 1 µM: 1 μM compound, read-out: % Inhibition of IL-4 Induced STAT6 Phosphorylation 1 μM
Method in brief: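 Human Ramos B cells (0.5 million) pre-incubated 1 h at 37°C/5% CO2 with compound or DMSO, then stimulated with 1 ng/ml IL4 for 10 min. Cells were PFA-fixed, methanol-permeabilized and stained with Alexa-anti-phosphoSTAT6 (Y641); flow cytometry mean fluorescence gave percent inhibition of the IL4 signal.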

T1 sequence (O60674 849-1124 limits assumed): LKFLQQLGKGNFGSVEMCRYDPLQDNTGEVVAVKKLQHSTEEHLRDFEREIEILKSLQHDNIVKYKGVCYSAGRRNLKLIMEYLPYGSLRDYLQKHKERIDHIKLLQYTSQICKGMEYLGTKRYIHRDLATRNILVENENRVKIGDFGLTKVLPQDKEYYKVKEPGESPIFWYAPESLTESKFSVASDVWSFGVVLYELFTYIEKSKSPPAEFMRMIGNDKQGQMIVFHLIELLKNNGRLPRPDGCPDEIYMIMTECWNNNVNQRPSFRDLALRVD

| Structure (SMILES) | IC50 [1] | IC50 [2] | IC50 [3] | IC50 [4] | IC50 [5] | IC50 [6] | inhibition at 0.2 µM [7] | inhibition at 1 µM [7] |
| --- | --- | --- | --- | --- | --- | --- | --- | --- |
| CC(=O)Nc1cccc(Nc2cc(NCc3ccccc3F)c(C(N)=O)cn2)c1 [Example 340, 6-(3-acetamidophenylamino)-4-(2-fluorobenzylamino)nicotinamide] | 100 to 1000 nM | 100 to 1000 nM | > 1000 nM | 10 to 100 nM |  |  |  |  |
| CNC(=O)Nc1cc(Nc2ncc(C(N)=O)c(NCc3ccccc3)n2)ccc1Cl [Example 131, 4-(benzylamino)-2-(4-chloro-3-(3-methylureido)phenylamino)pyrimidine-5-carboxamide] | 100 to 1000 nM | > 1000 nM |  | 1 to 10 nM | > 1000 nM | 10 to 100 nM | 0.3% | 4.3% |
| COCC(=O)Nc1cccc(Nc2ncc(C(N)=O)c(NC(C)C)n2)c1 [Example 57, 4-(isopropylamino)-2-(3-(2-methoxyacetamido)phenylamino)pyrimidine-5-carboxamide] | 10 to 100 nM | 10 to 100 nM |  | 1 to 10 nM | 100 to 1000 nM | 10 to 100 nM | 55% | 76.5% |
| NC(=O)c1cnc(Nc2cccc(NC(=O)C3CCC3)c2)nc1NC1CCCC1 [Example 20, 2-(3-(cyclobutanecarboxamido)phenylamino)-4-(cyclopentylamino)pyrimidine-5-carboxamide] | 10 to 100 nM | 10 to 100 nM |  | 1 to 10 nM | 100 to 1000 nM | 1 to 10 nM | 41.3% | 89.6% |

Now from value to compound, other results behind:

| IC50 [1] | IC50 [2] | IC50 [3] | IC50 [4] | IC50 [5] | IC50 [6] | Structure (SMILES) | inhibition at 0.2 µM [7] | inhibition at 1 µM [7] |
| --- | --- | --- | --- | --- | --- | --- | --- | --- |
| 100 to 1000 nM | > 1000 nM | > 1000 nM | 1 to 10 nM |  |  | CN(C)[C@@H]1CCN(C(=O)Nc2cccc(Nc3cc(N[C@H](CO)c4ccccc4)c(C(N)=O)cn3)c2)C1 [Example 312, 6-(3-((R)-3-(dimethylamino)pyrrolidine-1-carboxamido)phenylamino)-4-((S)-2-hydroxy-1-phenylethylamino)nicotinamide] |  |  |
| 10 to 100 nM | 100 to 1000 nM |  | 1 to 10 nM | > 1000 nM | 10 to 100 nM | CC(=O)Nc1cccc(Nc2ncc(C(N)=O)c(N[C@H](CO)c3ccccc3)n2)c1 [Example 93, (S)-2-(3-acetamidophenylamino)-4-(2-hydroxy-1-phenylethylamino)pyrimidine-5-carboxamide] | 20% | 53% |
| 100 to 1000 nM | 100 to 1000 nM |  | 10 to 100 nM | > 1000 nM | 100 to 1000 nM | CC(=O)Nc1cccc(Nc2ncc(C(N)=O)c(NCC3CCCN(C(=O)OCc4ccccc4)C3)n2)c1 (stereo not shown) [Example 115, Benzyl 3-((2-(3-acetamidophenylamino)-5-carbamoylpyrimidin-4-ylamino)methyl)piperidine-1-carboxylate] | 12.3% | 53.7% |
